Source: PMC7096405, “Field evaluation of sex pheromones and binding specificity of pheromone binding protein 4 in Tryporyza intacta (Lepidoptera: Crambidae)” (Scientific Reports, 2020)

Biological target: TintPBP4 (pheromone binding protein 4)
Test: fluorescence competitive binding assay, displacement of 1-NPN
Parameters: species or system Tryporyza intacta

Ki [nM] | SMILES
2510 | CCCC/C=C\CCCCCCCCCC=O [compound 2, Z11-16: Ald]
2970 | CCCC/C=C/CCCCCCCCCC=O [compound 1, E11-16: Ald]
